As a reminder, the pIC50 is the IC50 on a negative log10 scale, so that one unit is a factor of ten.

The structures appear in SMILES notation. pIC50: −log10 of the molar value.

The experiment deals with T1, ERK5 (Homo sapiens, UniProt Q13164).
T1 construct: gene MAPK7; endogenous ERK5 immunoprecipitated from EGF-treated MDA-MB231 cells
Put plainly: in vitro autophosphorylation kinase assay on immunoprecipitated active ERK5, Western blot mobility-shift readout. The format is biochemical.

T1 sequence (Q13164 2-816): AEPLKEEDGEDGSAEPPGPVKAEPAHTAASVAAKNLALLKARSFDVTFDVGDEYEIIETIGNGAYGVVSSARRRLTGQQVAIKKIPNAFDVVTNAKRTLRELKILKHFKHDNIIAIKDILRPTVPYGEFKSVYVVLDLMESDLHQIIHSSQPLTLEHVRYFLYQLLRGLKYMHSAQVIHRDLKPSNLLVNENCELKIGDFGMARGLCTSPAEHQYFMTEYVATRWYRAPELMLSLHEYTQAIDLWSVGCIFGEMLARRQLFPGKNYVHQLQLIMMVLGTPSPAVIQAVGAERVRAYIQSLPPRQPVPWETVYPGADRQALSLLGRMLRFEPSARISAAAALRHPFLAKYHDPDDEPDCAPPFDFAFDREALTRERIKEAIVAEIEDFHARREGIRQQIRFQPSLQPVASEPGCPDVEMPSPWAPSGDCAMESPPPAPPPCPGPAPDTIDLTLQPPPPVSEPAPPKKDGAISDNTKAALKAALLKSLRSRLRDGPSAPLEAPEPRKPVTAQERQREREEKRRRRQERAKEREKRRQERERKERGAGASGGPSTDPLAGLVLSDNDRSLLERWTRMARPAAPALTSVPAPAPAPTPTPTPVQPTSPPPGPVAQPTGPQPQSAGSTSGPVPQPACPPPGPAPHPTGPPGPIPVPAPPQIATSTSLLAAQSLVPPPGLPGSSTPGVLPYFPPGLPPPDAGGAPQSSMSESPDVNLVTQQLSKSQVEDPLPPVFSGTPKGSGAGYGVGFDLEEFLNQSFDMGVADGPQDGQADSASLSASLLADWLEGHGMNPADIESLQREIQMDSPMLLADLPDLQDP

`CN1C/C=C/CCOc2cccc(c2)-c2ccnc(n2)Nc2cccc(c2)C1` [TG02]: the negative logarithm of the IC50 (pIC50) is 7.00.

The values are drawn from article PMC4294347, “Therapeutic potential of ERK5 targeting in triple negative breast cancer” (Oncotarget, 2014).
